This is an account of results in ChEMBL document CHEMBL1127261, “3-Substituted 6-butyl-1,2-dihydropyridin-2-ones: A new series of potent nonpeptide angiotensin II receptor antagonists” (Bioorg Med Chem Lett, 1994).

Experiment [1] concerns the target T1, Angiotensin II receptor (AT-1) type-1 (Rattus norvegicus, UniProt P29089+P25095).
T1 sequence (P29089 whole entry): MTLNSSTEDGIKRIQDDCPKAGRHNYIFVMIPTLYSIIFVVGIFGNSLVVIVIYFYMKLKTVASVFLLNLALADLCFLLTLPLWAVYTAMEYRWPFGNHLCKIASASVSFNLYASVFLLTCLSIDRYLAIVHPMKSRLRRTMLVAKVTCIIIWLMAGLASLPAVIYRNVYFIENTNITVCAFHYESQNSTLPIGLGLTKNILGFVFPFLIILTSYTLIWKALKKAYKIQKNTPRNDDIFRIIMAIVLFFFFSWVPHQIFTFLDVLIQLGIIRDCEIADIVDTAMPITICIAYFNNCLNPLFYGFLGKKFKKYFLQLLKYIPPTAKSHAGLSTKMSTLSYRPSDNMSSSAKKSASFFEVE
T1 sequence (P25095 whole entry): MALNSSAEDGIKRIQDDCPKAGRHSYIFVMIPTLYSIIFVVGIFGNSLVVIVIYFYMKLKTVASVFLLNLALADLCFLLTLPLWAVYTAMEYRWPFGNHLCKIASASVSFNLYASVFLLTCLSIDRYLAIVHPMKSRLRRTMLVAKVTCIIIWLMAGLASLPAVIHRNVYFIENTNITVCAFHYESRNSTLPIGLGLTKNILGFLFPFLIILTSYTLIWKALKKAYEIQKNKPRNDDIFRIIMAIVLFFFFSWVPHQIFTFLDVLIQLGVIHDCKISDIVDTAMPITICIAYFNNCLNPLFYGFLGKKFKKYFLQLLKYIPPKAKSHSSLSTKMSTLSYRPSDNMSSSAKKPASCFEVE
Nature of the experiment: In vitro binding affinity to angiotensin II receptor, type 1 in rat adrenal cortex preparation. Format: tissue-based.

The species named for experiment [2] is Oryctolagus cuniculus. Nature of the experiment: In vitro functional antagonism in isolated rabbit aortic rings precontracted by AII. To be noted: Aorta.
Experiment [3] concerns Rattus norvegicus. As to the kind of experiment: In vivo percent inhibition of AII induced increase in diastolic blood pressure in pithed rats at a dose of 3 mg/kg, i.d. The class given is functional. Particulars: Artery, route intraduodenal.

For the compound `CCCCc1ccc(CNC(=O)Cc2ccccc2)c(=O)n1Cc1ccc(-c2ccccc2-c2nn[nH]n2)cc1`, the IC50 in experiment [1] came out at 4.1 nM.
Regarding `CCCCNC(=O)NCc1ccc(CCCC)n(Cc2ccc(-c3ccccc3-c3nn[nH]n3)cc2)c1=O`, the IC50 came out at 10 nM in experiment [2] and 9 nM in experiment [1]. Also, testing at 3 mg/kg in experiment [3] gave an inhibition in vivo of 10.3%.
The matching figures for `CCCCc1ccc(CNCc2ccccc2)c(=O)n1Cc1ccc(-c2ccccc2-c2nn[nH]n2)cc1`: 1 nM, 1.5 nM and 12.4%.
For `CCCCc1ccc(CN)c(=O)n1Cc1ccc(-c2ccccc2-c2nn[nH]n2)cc1`, the IC50 in experiment [2] was 20 nM; in experiment [1], 19 nM. This compound yielded an inhibition in vivo at 3 mg/kg in experiment [3] of 2.8%.
In experiment [1], `CCCCc1ccc(CNC(=O)CCC)c(=O)n1Cc1ccc(-c2ccccc2-c2nn[nH]n2)cc1` came in with an IC50 of 5.7 nM.
With `CCCCc1ccc(CNS(=O)(=O)c2ccc(C)cc2)c(=O)n1Cc1ccc(-c2ccccc2-c2nn[nH]n2)cc1`, the IC50 in experiment [2] is 9 nM; in experiment [1] it was 3.3 nM.
Consider `CCCCc1ccc(CNS(=O)(=O)c2ccccc2)c(=O)n1Cc1ccc(-c2ccccc2-c2nn[nH]n2)cc1`, for which the IC50 in experiment [2] was found to be 7 nM; in experiment [1], 4.1 nM. In experiment [3], this compound had an inhibition in vivo at 3 mg/kg of 25.2%.
The corresponding values for `CCCCc1ccc(CN(Cc2ccccc2)S(C)(=O)=O)c(=O)n1Cc1ccc(-c2ccccc2-c2nn[nH]n2)cc1` are 2 nM, 3.8 nM and 41.2%.
With `CCCCc1ccc(CN(Cc2ccccc2)S(=O)(=O)c2ccc(C)cc2)c(=O)n1Cc1ccc(-c2ccccc2-c2nn[nH]n2)cc1`, the IC50 in experiment [2] was 60 nM; in experiment [1], 16.5 nM. For the same compound, testing at 3 mg/kg in experiment [3] gave an inhibition in vivo of 36.6%.
Compound `CCCCc1ccc(C#N)c(=O)n1Cc1ccc(-c2ccccc2-c2nn[nH]n2)cc1` registered an IC50 in experiment [1] of 18 nM.
`CCCCc1ccc(C)c(=O)n1Cc1ccc(-c2ccccc2-c2nn[nH]n2)cc1`: the IC50 in experiment [2] came to 7 nM; in experiment [1], 6.1 nM.
As for `CCCCc1ccc(CN(C)S(=O)(=O)c2ccccc2)c(=O)n1Cc1ccc(-c2ccccc2-c2nn[nH]n2)cc1`, the IC50 stood at 2 nM in experiment [2] and 4.2 nM in experiment [1]. The inhibition in vivo at 3 mg/kg in experiment [3] was found to be 68.7%.
The matching figures for `CCCCc1ccc(CNC(=O)N(C)C)c(=O)n1Cc1ccc(-c2ccccc2-c2nn[nH]n2)cc1`: 2 nM, 2.9 nM and 28%.
For the compound `CCCCc1cccc(=O)n1Cc1ccc(-c2ccccc2-c2nn[nH]n2)cc1`, the IC50 was 4 nM in experiment [2] and 18 nM in experiment [1].
The corresponding values for `CCCCc1ccc(CN(C)S(=O)(=O)c2ccc(C)cc2)c(=O)n1Cc1ccc(-c2ccccc2-c2nn[nH]n2)cc1` are 8 nM and 4.2 nM.
The matching figures for `CCCCc1ccc(CN(CC)S(C)(=O)=O)c(=O)n1Cc1ccc(-c2ccccc2-c2nn[nH]n2)cc1`: 2 nM and 3.5 nM.
Regarding `CCCCc1ccc(CNC(=O)NC2CCCCC2)c(=O)n1Cc1ccc(-c2ccccc2-c2nn[nH]n2)cc1`, the IC50 in experiment [2] worked out at 90 nM; in experiment [1], 21 nM. In experiment [3], the inhibition in vivo at 3 mg/kg was found to be 0%.
Take `CCCCc1ccc(CNC(=O)OC(C)(C)C)c(=O)n1Cc1ccc(-c2ccccc2-c2nn[nH]n2)cc1`: the values for the half-maximal inhibitory concentration (IC50) in experiment [2] and in experiment [1] were 10 nM and 6 nM, respectively. The compound also gave an inhibition in vivo at 3 mg/kg in experiment [3] of 68.9%.
As for `CCCCc1ccc(CN(Cc2ccccc2)C(=O)OC(C)(C)C)c(=O)n1Cc1ccc(-c2ccccc2-c2nn[nH]n2)cc1`, the IC50 in experiment [1] came out at 20 nM.
On to `CCCCc1ccc(CN(Cc2ccccc2)C(C)=O)c(=O)n1Cc1ccc(-c2ccccc2-c2nn[nH]n2)cc1`, for which the IC50 in experiment [2] is 1 nM; in experiment [1], 2.8 nM. Further, 3 mg/kg produced 76.3% inhibition in vivo in experiment [3].
The matching figures for `CCCCc1ccc(CNS(C)(=O)=O)c(=O)n1Cc1ccc(-c2ccccc2-c2nn[nH]n2)cc1`: 2 nM, 2.2 nM and 54.8%.
Turning to `CCCCc1ccc(CN(C(C)C)S(C)(=O)=O)c(=O)n1Cc1ccc(-c2ccccc2-c2nn[nH]n2)cc1`, the IC50 in experiment [2] was determined as 0.9 nM; in experiment [1], 1.9 nM. Moreover, the inhibition in vivo at 3 mg/kg in experiment [3] is 82.7%.
The matching figures for `CCCCc1ccc(CN(Cc2ccccc2)S(=O)(=O)c2ccccc2)c(=O)n1Cc1ccc(-c2ccccc2-c2nn[nH]n2)cc1`: 20 nM, 12 nM and 75.7%.
The corresponding values for `CCCCc1ccc(CNC(C)=O)c(=O)n1Cc1ccc(-c2ccccc2-c2nn[nH]n2)cc1` are 3 nM, 3.8 nM and 8.6%.
In turn, `CCCCc1ccc(CNC(=O)N(CC)CC)c(=O)n1Cc1ccc(-c2ccccc2-c2nn[nH]n2)cc1` displayed an IC50 in experiment [1] of 6.5 nM.
Regarding `CCCCc1ccc(CN(C)S(C)(=O)=O)c(=O)n1Cc1ccc(-c2ccccc2-c2nn[nH]n2)cc1`, the IC50 was 0.2 nM in experiment [2] and 1.2 nM in experiment [1]. The same compound had an inhibition in vivo at 3 mg/kg in experiment [3] of 83.4%.
Compound `CCCCc1nc(Cl)c(CO)n1Cc1ccc(-c2ccccc2-c2nn[nH]n2)cc1` came in with an IC50 in experiment [2] of 3 nM. This compound showed an inhibition in vivo at 3 mg/kg in experiment [3] of 73.6%.
For the compound `CCCCc1ccc(CN(C)C(=O)N(C)C)c(=O)n1Cc1ccc(-c2ccccc2-c2nn[nH]n2)cc1`, the IC50 in experiment [1] stood at 13 nM.
`CCCCc1ccc(CNS(=O)(=O)C(F)(F)F)c(=O)n1Cc1ccc(-c2ccccc2-c2nn[nH]n2)cc1`: the IC50 in experiment [1] came to 22 nM.
As to `CCCCc1ccc(CNC(=O)Nc2ccccc2)c(=O)n1Cc1ccc(-c2ccccc2-c2nn[nH]n2)cc1`, the figures for the IC50 in experiment [2] and in experiment [1] were 30 nM and 18 nM, respectively. In experiment [3], this compound returned an inhibition in vivo at 3 mg/kg of 0%.
